This is an account of results in article PMC6616128, “Liquiritin, as a Natural Inhibitor of AKR1C1, Could Interfere With the Progesterone Metabolism” (Frontiers in Physiology, 2019).

Where two headings read alike, the source gives them in different places.

In the assay the target is T1, AKR1C1 (Homo sapiens, UniProt Q04828).
T1 sequence (Q04828 1-323): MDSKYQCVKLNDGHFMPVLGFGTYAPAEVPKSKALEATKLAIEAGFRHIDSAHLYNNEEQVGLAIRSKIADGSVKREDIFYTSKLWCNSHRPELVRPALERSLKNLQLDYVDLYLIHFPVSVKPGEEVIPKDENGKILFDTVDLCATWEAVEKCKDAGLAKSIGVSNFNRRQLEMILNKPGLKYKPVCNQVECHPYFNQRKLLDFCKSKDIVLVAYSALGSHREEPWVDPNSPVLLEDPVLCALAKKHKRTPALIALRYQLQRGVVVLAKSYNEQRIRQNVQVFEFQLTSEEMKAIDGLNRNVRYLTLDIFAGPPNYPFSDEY
The assay can be described thus: Enzyme activity (NADPH) assay with s-tetralol, recombinant GST-AKR1C1.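 As to all read-outs here: GST-fused AKR1C1 expressed in E. coli and purified by glutathione affinity, control wells received DMSO instead of compound, duplicate samples from a single experiment.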 Format: biochemical. The arrangement: made in house; host or cells: Escherichia coli JM109. Conditions: for enzyme activity: CON 192.295568; for remaining activity at 2 µM: read-out: ratio (activity relative to CON).

[1] abbreviates: 2 μM compound, Supplementary Table 1.
[2] abbreviates: 2 μM compound, Supplementary Table 1, CON 0.0122.
Where [3] appears, read: 2 μM compound, Supplementary Table 1, CON = 1.
Setting [4] is: 2 μM compound, Supplementary Table 1, read-out: % inhibition.

Method: GST-tagged recombinant AKR1C isoforms expressed JM109 was grown in Luria-Bertani broth (100 μg⋅ml-1 ampicillin, pH = 7.0) at 37°C with orbital shaking at 220 rpm. When cells achieved an OD600 nm between 0.4 and 0.6, 0.3 mM final concentration of isopropyl β-D-1-thiogalactopyranoside (IPTG) was added to the cultures and incubated for an additional 12 h at 25°C. Cells were harvested by centrifugation at 8000 g for 10 min, and the cell pellets were stored at -80°C for storage. The pellets were resuspended in 1 × PBS, pH = 7.4 and lysed by ultrasonication at ice-cold temperature using an UH-03 union instrument. The purification of glutathione-S-transferase (GST)-fusion AKR1C1, AKR1C2, and AKR1C3 were then carried out using ÄKTA systems from GE Healthcare as described in Handbook. The recombinant proteins were eluted in 50 mM Tris–HCl (pH = 8.0) with 20 mM reduced glutathione, fresh preparedly. Protein concentrations were determined using the Bradford protein assay kit. All proteins were aliquoted and stored at -80°C containing 20% glycerol.
To screen for the indicated inhibitor, the assay mixture was added with additional DMSO or 2 μM compounds. […] The inhibition patterns were determined by fitting initial velocity and inhibitor concentration into inhibition models using Graphpad Prism 6.0. All inhibition data were obtained from single experiments, with samples conducted in duplicate.
Firstly, we overexpressed recombinant human AKR1C in E. coli in the form of a GST-fusion protein, and then purified it by affinity chromatography on glutathione-Sepharose.
To screen for the inhibitors of AKR1C1, we developed a readily accessible indirect NADPH generating-based assay that can be used for high-throughput inhibitors screening. […] Wells were included containing enzyme and no inhibitor or 2 μM inhibitor.

As for Salvianolic acid B, under setting [1], the % inhibition (commonly the change of the read-out against control, counted positive when it falls) was found to be 31.38% and the enzyme activity is given as 131.9499 nmol/min/mg. Moreover, the slope under setting [2] came to 0.008371. Under setting [3], the “ratio (activity relative to CON)” value amounted to 0.6862.
In the case of `COc1cc2c(c(OC)c1OC)-c1c(cc3c(c1OC)OCO3)C[C@H](C)[C@@](C)(O)C2` [Schisandrol B], the slope under setting [2] is listed as 0.0137. Besides, the enzyme activity under setting [1] came to 215.6683 nmol/min/mg. In addition, the remaining activity at 2 µM under setting [3] is 112%. Moreover, the inhibition (in general, the relative decrease from the control value, in per cent) at 2 µM under setting [4] is -12.2%.
In the same order, the values of `O=c1c(O[C@@H]2O[C@H](CO)[C@@H](O)[C@H](O)[C@H]2O)c(-c2ccc(O)cc2)oc2cc(O)cc(O)c12` [Astragalin] are 0.007614, 120.0159 nmol/min/mg, 62.4% and 37.6%.
Turning to `COc1cc(C(=O)O[C@H]2[C@@H]3C=CO[C@@H](O[C@@H]4O[C@H](CO)[C@@H](O)[C@H](O)[C@H]4O)[C@@H]3[C@@]3(CO)O[C@@H]23)ccc1O` [Picroside Ⅱ], the slope under setting [2] worked out at 0.006957. For the same compound, the enzyme activity under setting [1] is listed as 109.658 nmol/min/mg. Further, under setting [3], the remaining activity at 2 µM was 57%. Moreover, under setting [4], the inhibition at 2 µM stood at 43%.
In the case of `O=c1c2cc(O)c(O)cc2oc2cc(O)c([C@@H]3O[C@H](CO)[C@@H](O)[C@H](O)[C@H]3O)c(O)c12` [Mangiferin], the slope under setting [2] amounted to 0.009429. For the same compound, the enzyme activity under setting [1] was 148.6125 nmol/min/mg. The remaining activity at 2 µM under setting [3] turned out to be 77.3%. In addition, the inhibition at 2 µM under setting [4] was 22.7%.
With `C[C@@H]1C(=O)O[C@H]2C[C@@]34[C@H]5C[C@@H](C(C)(C)C)[C@]36[C@@H](OC(=O)[C@@H]6O)O[C@@]4(C(=O)O5)[C@]21O` [Ginkgolide A], the slope under setting [2] amounted to 0.008406. Also, the enzyme activity under setting [1] turned out to be 132.4903 nmol/min/mg. In addition, the remaining activity at 2 µM under setting [3] was found to be 68.9%. Under setting [4], the inhibition at 2 µM was 31.1%.
In the same order, the values of `O=C(/C=C/c1ccc(O)cc1)CC(=O)/C=C/c1ccc(O)cc1` [Bisdemethoxycurcumin] are 0.0114, 180.2715 nmol/min/mg, 93.8% and 6.25%.
With `COc1ccc(-c2cc(=O)c3c(OC)c(OC)c(OC)c(OC)c3o2)cc1` [Tangeretin], under setting [2], the slope was determined as 0.0133. Also, under setting [1], the enzyme activity is given as 209.3185 nmol/min/mg. Besides, the remaining activity at 2 µM under setting [3] is 109%. Moreover, the inhibition at 2 µM under setting [4] was -8.85%.
For `CC(C)(C)[C@]1(O)CC2OC(=O)CC23C(=O)OC2OC(=O)[C@H](O)C231` (some centres unmarked) [Bilobalide], the inhibition at 2 µM is 37.5%, the slope is on record as 0.007623 and the remaining activity at 2 µM stood at 62.5%. In addition, the enzyme activity under setting [1] was found to be 120.151 nmol/min/mg.
On to `O=c1c(-c2ccc(O)cc2)coc2cc(O[C@@H]3O[C@H](CO)[C@@H](O)[C@H](O)[C@H]3O)cc(O)c12` [Genistin], for which the slope under setting [2] is 0.0129. Besides, the enzyme activity under setting [1] is recorded as 203.1488 nmol/min/mg. For the same compound, under setting [3], the remaining activity at 2 µM is 106%. Further, the inhibition at 2 µM under setting [4] was -5.64%.
For `Oc1cc(O)c2c(c1)O[C@H](c1cc(O)c(O)c(O)c1)[C@H](O)C2` [Epigallocatechin], in that order: 0.0131, 206.6164 nmol/min/mg, 107% and -7.45%.
Take Schisantherin A: under setting [1], the “% inhibition” value is recorded as -8.57% and the enzyme activity turned out to be 208.778 nmol/min/mg. The slope under setting [2] amounted to 0.0132. In addition, under setting [3], the “ratio (activity relative to CON)” value was 1.0857.
For `COc1c(O[C@@H]2O[C@H](C(=O)O)[C@@H](O)[C@H](O)[C@H]2O)cc(O)c2c(=O)cc(-c3ccccc3)oc12` [Wogonoside], in that order: -8.88%, 209.3635 nmol/min/mg, 0.0133 and 1.0888.
Turning to `CC1(C)C=Cc2c(ccc3c2OC[C@@H](c2ccc(O)cc2O)C3)O1` [Glabridin], under setting [2], the slope was 0.0136. In addition, the enzyme activity under setting [1] is 215.1279 nmol/min/mg. Moreover, the remaining activity at 2 µM under setting [3] is 112%. In addition, under setting [4], the inhibition at 2 µM was -11.9%.
For the compound `Oc1cc(O)c2c(c1)O[C@H](c1cc(O)c(O)c(O)c1)[C@H](O)C2` [(−)-Epigallocatechin], under setting [1], the “% inhibition” value is -7.17% and the enzyme activity worked out at 206.076 nmol/min/mg. The slope under setting [2] stood at 0.0131. The “ratio (activity relative to CON)” value under setting [3] came to 1.0717.
For the compound `O=c1c(O[C@@H]2O[C@H](CO)[C@@H](O)[C@H](O)[C@H]2O)c(-c2ccc(O)c(O)c2)oc2cc(O)cc(O)c12` [Isoquercitrin], the slope under setting [2] worked out at 0.007797. For the same compound, the enzyme activity under setting [1] is 122.898 nmol/min/mg. In addition, the remaining activity at 2 µM under setting [3] was determined as 63.9%. Moreover, the inhibition at 2 µM under setting [4] is 36.1%.
In the same order, the values of `COc1cc(/C=C/C(=O)CC(=O)/C=C/c2ccc(O)c(OC)c2)ccc1O` [Curcumin] are 0.006283, 99.03 nmol/min/mg, 51.5% and 48.5%.
For the compound `O=c1c(-c2ccc(O)cc2)coc2cc(O)ccc12` [Daidzein], under setting [2], the slope turned out to be 0.007957. Further, under setting [1], the enzyme activity is reported as 125.4199 nmol/min/mg. Also, under setting [3], the remaining activity at 2 µM was 65.2%. Besides, the inhibition at 2 µM under setting [4] was 34.8%.
For the compound `COc1cc2c(cc1O)CC[n+]1cc3c(OC)c(OC)ccc3cc1-2.[Cl-]` [Jatrorrhizine Hydrochloride], under setting [1], the “% inhibition” value is recorded as -4.38% and the enzyme activity was determined as 200.7169 nmol/min/mg. Besides, under setting [2], the slope turned out to be 0.0127. Moreover, the “ratio (activity relative to CON)” value under setting [3] is recorded as 1.0438.
In the same order, the values of `COc1c2c(cc3oc(CO[C@@H]4O[C@H](CO)[C@@H](O)[C@H](O)[C@H]4O)cc(=O)c13)O[C@H](C(C)(C)O)C2` [Prim-O-glucosylcimifugin] are -1.55%, 195.2678 nmol/min/mg, 0.0124 and 1.0155.
For `COc1cc(O)c2c(c1)C(=O)c1cc(C)cc(O)c1C2=O` [Emodin-3-methyl ether], under setting [1], the “% inhibition” value was -4.57% and the enzyme activity was found to be 201.0772 nmol/min/mg. Further, the slope under setting [2] is 0.0128. Besides, under setting [3], the “ratio (activity relative to CON)” value is 1.0457.
On to `CC1(C)O[C@H]1COc1c2ccoc2cc2oc(=O)ccc12` [Oxypeucedanin], for which the slope under setting [2] is listed as 0.0122. For the same compound, the enzyme activity under setting [1] is 192.3856 nmol/min/mg. Also, the remaining activity at 2 µM under setting [3] was determined as 100%. For the same compound, under setting [4], the inhibition at 2 µM was -0.05%.
`C[C@@H]1O[C@@H](Oc2c(-c3ccc(O)c(O)c3)oc3cc(O)cc(O)c3c2=O)[C@H](O)[C@H](O)[C@H]1O` [Quercitrin]: under setting [2], the slope came to 0.0114. Moreover, the enzyme activity under setting [1] is recorded as 180.0013 nmol/min/mg. Moreover, under setting [3], the remaining activity at 2 µM is 93.6%. Further, the inhibition at 2 µM under setting [4] stood at 6.39%.
For Ginkgolide B, under setting [1], the “% inhibition” value is on record as 34.68% and the enzyme activity is on record as 125.6001 nmol/min/mg. The slope under setting [2] came to 0.007969. Besides, the “ratio (activity relative to CON)” value under setting [3] is recorded as 0.6532.
For Hydroxysafflor yellow A, the slope was determined as 0.008806. Further, under setting [1], the “% inhibition” value was 27.82% and the enzyme activity is 138.7951 nmol/min/mg. Moreover, the “ratio (activity relative to CON)” value under setting [3] was determined as 0.7218.
With `COc1ccc(-c2coc3cc(O)ccc3c2=O)cc1O` [Calycosin], under setting [2], the slope was determined as 0.0116. For the same compound, the enzyme activity under setting [1] turned out to be 183.0185 nmol/min/mg. In addition, the remaining activity at 2 µM under setting [3] amounted to 95.2%. Under setting [4], the inhibition at 2 µM was 4.82%.
`C[C@@H]1CC[C@@]2(OC1)O[C@H]1C[C@H]3[C@@H]4CC=C5C[C@@H](O[C@@H]6O[C@H](CO)[C@@H](O[C@@H]7O[C@@H](C)[C@H](O)[C@@H](O)[C@H]7O)[C@H](O)[C@H]6O[C@@H]6O[C@@H](C)[C@H](O)[C@@H](O)[C@H]6O)CC[C@]5(C)[C@H]4CC[C@]3(C)[C@H]1[C@@H]2C` [Dioscin]: the slope under setting [2] is reported as 0.0134. Also, the enzyme activity under setting [1] came to 211.8854 nmol/min/mg. Under setting [3], the remaining activity at 2 µM is 110%. For the same compound, the inhibition at 2 µM under setting [4] was -10.2%.
Take `C[C@H]1O[C@@H](O[C@H]2CC[C@@]3(C)[C@@H](CC[C@]4(C)[C@@H]3C=C[C@]35OC[C@@]6(CCC(C)(C)C[C@H]63)[C@H](O)C[C@]54C)[C@]2(C)CO)[C@H](O)[C@@H](O[C@@H]2O[C@H](CO)[C@@H](O)[C@H](O)[C@H]2O)[C@H]1O` [Saikosaponin D]: under setting [1], the “% inhibition” value came to 5.41% and the enzyme activity came to 181.8927 nmol/min/mg. Further, the slope under setting [2] is reported as 0.0115. Under setting [3], the “ratio (activity relative to CON)” value is reported as 0.9459.
`CC(C)=CC[C@@H](O)C1=CC(=O)c2c(O)ccc(O)c2C1=O` [Shikonin]: the slope under setting [2] was 0.0134. Besides, under setting [1], the enzyme activity is recorded as 210.4443 nmol/min/mg. The remaining activity at 2 µM under setting [3] is 109%. Under setting [4], the inhibition at 2 µM was -9.44%.
